# Experimental data: patent US10167262B2, “Herbicidal substituted 3-arylpyrazoles” (FMC CORPORATION, priority 2014, dated 2019)
# What was measured:
# Assay in all cases: Test E pre-/postemergence greenhouse test, plant response rating 0-100
# Assay type in all cases: in vivo
# [1] = system: Brazilian crabgrass (Digitaria horizontalis); settings: Digitaria horizontalis, post-emergence, Postemergence, scale 0 to 100, read-out: Plant response rating, Crabgrass, Brazil
# Method in brief: (§1)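 Rated visually against controls 14-21 days after treatment on a 0-100 scale (100 = complete control). Pre- and postemergence sprays used a non-phytotoxic solvent mixture with surfactant. Preemergence seeds were in silt loam; postemergence plants were in peat-based medium at the 1- to 4-leaf stage (2-18 cm).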
# [2] = system: Italian ryegrass (Lolium multiflorum); settings: scale 0 to 100; for Ryegrass, Italian plant response rating: Preemergence
# Method in brief: as §1
# [3] = system: arrowleaf sida (Sida rhombifolia); settings: for Arrowleaf Sida plant response rating: Preemergence
# Method in brief: as §1
# [4] = system: barnyardgrass (Echinochloa crus-galli); settings: scale 0 to 100; for Barnyardgrass plant response rating: Preemergence
# Method in brief: as §1
# corn (Zea mays) = settings: scale 0 to 100; for Corn plant response rating: Preemergence
# Method in brief: as §1
# [5] = system: dayflower (Virginia (VA) dayflower, Commelina virginica); settings: scale 0 to 100; for Dayflower, VA plant response rating: Preemergence
# Method in brief: as §1
# [6] = system: hairy beggarticks (Bidens pilosa); settings: scale 0 to 100; for Beggarticks plant response rating: Preemergence
# Method in brief: as §1
# [7] = system: palmer pigweed (Amaranthus palmeri); settings: scale 0 to 100; for Pigweed, Palmer plant response rating: Preemergence
# Method in brief: as §1
# [8] = system: sandbur (southern sandbur, Cenchrus echinatus); settings: scale 0 to 100; for Sandbur plant response rating: Preemergence
# Method in brief: as §1
# soybean (Glycine max) = settings: scale 0 to 100; for Soybean plant response rating: Preemergence
# Method in brief: as §1
# [9] = system: waterhemp (common waterhemp, Amaranthus rudis); settings: scale 0 to 100; for Waterhemp plant response rating: Preemergence
# Method in brief: as §1
# [10] = system: wild poinsettia (Euphorbia heterophylla); settings: scale 0 to 100; for Poinsettia, Wild plant response rating: Preemergence
# Method in brief: as §1
structure (smiles),measurement,setting,value
"COCC(=O)n1cc(C(=O)c2ccccc2)c(-c2cc(Cl)cc(Cl)c2)n1 [Compound 16, 1-[4-benzoyl-3-(3,5-dichlorophenyl)-1H-pyrazol-1-yl]-2-methoxyethanone]",pest or weed control at 31 g/ha,[1]; 31 g ai/ha,0%
same,pest or weed control at 62 g/ha,[1]; 62 g ai/ha,0%
same,pest or weed control at 125 g/ha,[1]; 125 g ai/ha,0%
same,pest or weed control at 250 g/ha,[1]; 250 g ai/ha,0%
same,pest or weed control at 500 g/ha,[1]; 500 g ai/ha,0%
same,pest or weed control at 31 g/ha,"[2]; Lolium multiflorum, post-emergence, Postemergence, 31 g ai/ha",0%
same,pest or weed control at 62 g/ha,"[2]; Lolium multiflorum, post-emergence, Postemergence, 62 g ai/ha",0%
same,pest or weed control at 125 g/ha,"[2]; Lolium multiflorum, post-emergence, Postemergence, 125 g ai/ha",0%
same,pest or weed control at 250 g/ha,"[2]; Lolium multiflorum, post-emergence, Postemergence, 250 g ai/ha",0%
same,pest or weed control at 500 g/ha,"[2]; Lolium multiflorum, post-emergence, Postemergence, 500 g ai/ha",0%
same,"Ryegrass, Italian plant response rating",[2]; 31 g ai/ha,0
same,"Ryegrass, Italian plant response rating",[2]; 62 g ai/ha,0
same,"Ryegrass, Italian plant response rating",[2]; 125 g ai/ha,0
same,"Ryegrass, Italian plant response rating",[2]; 250 g ai/ha,0
same,"Ryegrass, Italian plant response rating",[2]; 500 g ai/ha,0
same,Arrowleaf Sida plant response rating,"[3]; 31 g ai/ha, scale 0 to 100",25
same,Arrowleaf Sida plant response rating,"[3]; 62 g ai/ha, scale 0 to 100",35
same,Arrowleaf Sida plant response rating,"[3]; 125 g ai/ha, scale 0 to 100",90
same,Arrowleaf Sida plant response rating,"[3]; 250 g ai/ha, scale 0 to 100",95
same,Arrowleaf Sida plant response rating,"[3]; 500 g ai/ha, scale 0 to 100",100
same,pest or weed control at 31 g/ha,"[3]; Sida rhombifolia, post-emergence, Postemergence, 31 g ai/ha, scale 0 to 100",95%
same,pest or weed control at 62 g/ha,"[3]; Sida rhombifolia, post-emergence, Postemergence, 62 g ai/ha, scale 0 to 100",98%
same,pest or weed control at 125 g/ha,"[3]; Sida rhombifolia, post-emergence, Postemergence, 125 g ai/ha, scale 0 to 100",98%
same,pest or weed control at 250 g/ha,"[3]; Sida rhombifolia, post-emergence, Postemergence, 250 g ai/ha, scale 0 to 100",98%
same,pest or weed control at 500 g/ha,"[3]; Sida rhombifolia, post-emergence, Postemergence, 500 g ai/ha, scale 0 to 100 (0 no effect, 100 complete control)",100%
same,pest or weed control at 31 g/ha,"[4]; Echinochloa crus-galli, post-emergence, Postemergence, 31 g ai/ha",0%
same,pest or weed control at 62 g/ha,"[4]; Echinochloa crus-galli, post-emergence, Postemergence, 62 g ai/ha",0%
same,pest or weed control at 125 g/ha,"[4]; Echinochloa crus-galli, post-emergence, Postemergence, 125 g ai/ha",0%
same,pest or weed control at 250 g/ha,"[4]; Echinochloa crus-galli, post-emergence, Postemergence, 250 g ai/ha",0%
same,pest or weed control at 500 g/ha,"[4]; Echinochloa crus-galli, post-emergence, Postemergence, 500 g ai/ha",0%
same,Barnyardgrass plant response rating,[4]; 31 g ai/ha,0
same,Barnyardgrass plant response rating,[4]; 62 g ai/ha,0
same,Barnyardgrass plant response rating,[4]; 125 g ai/ha,0
same,Barnyardgrass plant response rating,[4]; 250 g ai/ha,0
same,Barnyardgrass plant response rating,[4]; 500 g ai/ha,0
same,Corn plant response rating,corn (Zea mays); 31 g ai/ha,0
same,Corn plant response rating,corn (Zea mays); 62 g ai/ha,0
same,Corn plant response rating,corn (Zea mays); 125 g ai/ha,0
same,Corn plant response rating,corn (Zea mays); 250 g ai/ha,0
same,Corn plant response rating,corn (Zea mays); 500 g ai/ha,0
same,"Corn plant response rating (crop injury, 0 = no effect, 100 = complete kill) at 31 g/ha","corn (Zea mays); Zea mays, post-emergence, Postemergence, 31 g ai/ha",0%
same,"Corn plant response rating (crop injury, 0 = no effect, 100 = complete kill) at 62 g/ha","corn (Zea mays); Zea mays, post-emergence, Postemergence, 62 g ai/ha",0%
same,"Corn plant response rating (crop injury, 0 = no effect, 100 = complete kill) at 125 g/ha","corn (Zea mays); Zea mays, post-emergence, Postemergence, 125 g ai/ha",0%
same,"Corn plant response rating (crop injury, 0 = no effect, 100 = complete kill) at 250 g/ha","corn (Zea mays); Zea mays, post-emergence, Postemergence, 250 g ai/ha",0%
same,"Corn plant response rating (crop injury, 0 = no effect, 100 = complete kill) at 500 g/ha","corn (Zea mays); Zea mays, post-emergence, Postemergence, 500 g ai/ha",0%
same,pest or weed control at 31 g/ha,"[5]; Commelina virginica, post-emergence, Postemergence, 31 g ai/ha",0%
same,pest or weed control at 62 g/ha,"[5]; Commelina virginica, post-emergence, Postemergence, 62 g ai/ha",0%
same,pest or weed control at 125 g/ha,"[5]; Commelina virginica, post-emergence, Postemergence, 125 g ai/ha",0%
same,pest or weed control at 250 g/ha,"[5]; Commelina virginica, post-emergence, Postemergence, 250 g ai/ha",0%
same,pest or weed control at 500 g/ha,"[5]; Commelina virginica, post-emergence, Postemergence, 500 g ai/ha",0%
same,"Dayflower, VA plant response rating",[5]; 31 g ai/ha,0
same,"Dayflower, VA plant response rating",[5]; 62 g ai/ha,0
same,"Dayflower, VA plant response rating",[5]; 125 g ai/ha,0
same,"Dayflower, VA plant response rating",[5]; 250 g ai/ha,0
same,"Dayflower, VA plant response rating",[5]; 500 g ai/ha,0
same,pest or weed control at 31 g/ha,"[6]; Bidens pilosa, post-emergence, Postemergence, 31 g ai/ha",95%
same,pest or weed control at 62 g/ha,"[6]; Bidens pilosa, post-emergence, Postemergence, 62 g ai/ha",100%
same,pest or weed control at 125 g/ha,"[6]; Bidens pilosa, post-emergence, Postemergence, 125 g ai/ha",98%
same,pest or weed control at 250 g/ha,"[6]; Bidens pilosa, post-emergence, Postemergence, 250 g ai/ha",98%
same,pest or weed control at 500 g/ha,"[6]; Bidens pilosa, post-emergence, Postemergence, 500 g ai/ha",98%
same,Beggarticks plant response rating,[6]; 31 g ai/ha,0
same,Beggarticks plant response rating,[6]; 62 g ai/ha,0
same,Beggarticks plant response rating,[6]; 125 g ai/ha,25
same,Beggarticks plant response rating,[6]; 250 g ai/ha,50
same,Beggarticks plant response rating,[6]; 500 g ai/ha,65
same,pest or weed control at 31 g/ha,"[7]; Amaranthus palmeri, post-emergence, Postemergence, 31 g ai/ha",70%
same,pest or weed control at 62 g/ha,"[7]; Amaranthus palmeri, post-emergence, Postemergence, 62 g ai/ha",70%
same,pest or weed control at 125 g/ha,"[7]; Amaranthus palmeri, post-emergence, Postemergence, 125 g ai/ha",90%
same,pest or weed control at 250 g/ha,"[7]; Amaranthus palmeri, post-emergence, Postemergence, 250 g ai/ha",90%
same,pest or weed control at 500 g/ha,"[7]; Amaranthus palmeri, post-emergence, Postemergence, 500 g ai/ha",100%
same,"Pigweed, Palmer plant response rating",[7]; 31 g ai/ha,0
same,"Pigweed, Palmer plant response rating",[7]; 62 g ai/ha,0
same,"Pigweed, Palmer plant response rating",[7]; 125 g ai/ha,0
same,"Pigweed, Palmer plant response rating",[7]; 250 g ai/ha,0
same,"Pigweed, Palmer plant response rating",[7]; 500 g ai/ha,0
same,pest or weed control at 31 g/ha,"[8]; Cenchrus echinatus, post-emergence, Postemergence, 31 g ai/ha",0%
same,pest or weed control at 62 g/ha,"[8]; Cenchrus echinatus, post-emergence, Postemergence, 62 g ai/ha",0%
same,pest or weed control at 125 g/ha,"[8]; Cenchrus echinatus, post-emergence, Postemergence, 125 g ai/ha",0%
same,pest or weed control at 250 g/ha,"[8]; Cenchrus echinatus, post-emergence, Postemergence, 250 g ai/ha",0%
same,pest or weed control at 500 g/ha,"[8]; Cenchrus echinatus, post-emergence, Postemergence, 500 g ai/ha",0%
same,Sandbur plant response rating,[8]; 31 g ai/ha,0
same,Sandbur plant response rating,[8]; 62 g ai/ha,0
same,Sandbur plant response rating,[8]; 125 g ai/ha,0
same,Sandbur plant response rating,[8]; 250 g ai/ha,0
same,Sandbur plant response rating,[8]; 500 g ai/ha,0
same,plant injury at 31 g/ha,"soybean (Glycine max); Glycine max, post-emergence, Postemergence, 31 g ai/ha",0%
same,plant injury at 62 g/ha,"soybean (Glycine max); Glycine max, post-emergence, Postemergence, 62 g ai/ha",0%
same,plant injury at 125 g/ha,"soybean (Glycine max); Glycine max, post-emergence, Postemergence, 125 g ai/ha",0%
same,plant injury at 250 g/ha,"soybean (Glycine max); Glycine max, post-emergence, Postemergence, 250 g ai/ha",0%
same,plant injury at 500 g/ha,"soybean (Glycine max); Glycine max, post-emergence, Postemergence, 500 g ai/ha",0%
same,Soybean plant response rating,soybean (Glycine max); 31 g ai/ha,0
same,Soybean plant response rating,soybean (Glycine max); 62 g ai/ha,0
same,Soybean plant response rating,soybean (Glycine max); 125 g ai/ha,0
same,Soybean plant response rating,soybean (Glycine max); 250 g ai/ha,0
same,Soybean plant response rating,soybean (Glycine max); 500 g ai/ha,0
same,pest or weed control at 31 g/ha,"[9]; Amaranthus tuberculatus, post-emergence, Postemergence, 31 g ai/ha",95%
same,pest or weed control at 62 g/ha,"[9]; Amaranthus tuberculatus, post-emergence, Postemergence, 62 g ai/ha",98%
same,pest or weed control at 125 g/ha,"[9]; Amaranthus tuberculatus, post-emergence, Postemergence, 125 g ai/ha",98%
same,pest or weed control at 250 g/ha,"[9]; Amaranthus tuberculatus, post-emergence, Postemergence, 250 g ai/ha",98%
same,pest or weed control at 500 g/ha,"[9]; Amaranthus tuberculatus, post-emergence, Postemergence, 500 g ai/ha",100%
same,Waterhemp plant response rating,[9]; 31 g ai/ha,0
same,Waterhemp plant response rating,[9]; 62 g ai/ha,30
same,Waterhemp plant response rating,[9]; 125 g ai/ha,70
same,Waterhemp plant response rating,[9]; 250 g ai/ha,100
same,Waterhemp plant response rating,[9]; 500 g ai/ha,100
same,pest or weed control at 31 g/ha,"[10]; Euphorbia heterophylla, post-emergence, Postemergence, 31 g ai/ha, read-out: Plant response rating, Poinsettia, Wild",0%
same,pest or weed control at 62 g/ha,"[10]; Euphorbia heterophylla, post-emergence, Postemergence, 62 g ai/ha, read-out: Plant response rating, Poinsettia, Wild",0%
same,pest or weed control at 125 g/ha,"[10]; Euphorbia heterophylla, post-emergence, Postemergence, 125 g ai/ha, read-out: Plant response rating, Poinsettia, Wild",0%
same,pest or weed control at 250 g/ha,"[10]; Euphorbia heterophylla, post-emergence, Postemergence, 250 g ai/ha, read-out: Plant response rating, Poinsettia, Wild",0%
same,pest or weed control at 500 g/ha,"[10]; Euphorbia heterophylla, post-emergence, Postemergence, 500 g ai/ha, read-out: Plant response rating, Poinsettia, Wild",0%
same,"Poinsettia, Wild plant response rating",[10]; 31 g ai/ha,0
same,"Poinsettia, Wild plant response rating",[10]; 62 g ai/ha,0
same,"Poinsettia, Wild plant response rating",[10]; 125 g ai/ha,0
same,"Poinsettia, Wild plant response rating",[10]; 250 g ai/ha,0
same,"Poinsettia, Wild plant response rating",[10]; 500 g ai/ha,0
